For the assay, the target named is T1, His-tagged full-length RSK2 (RPS6KA3) (Homo sapiens, UniProt P51812).
T1 construct: His-tagged full-length RSK2 (RPS6KA3, Invitrogen PV3323); His; purchased Invitrogen PV3323
T1 sequence (P51812 whole entry): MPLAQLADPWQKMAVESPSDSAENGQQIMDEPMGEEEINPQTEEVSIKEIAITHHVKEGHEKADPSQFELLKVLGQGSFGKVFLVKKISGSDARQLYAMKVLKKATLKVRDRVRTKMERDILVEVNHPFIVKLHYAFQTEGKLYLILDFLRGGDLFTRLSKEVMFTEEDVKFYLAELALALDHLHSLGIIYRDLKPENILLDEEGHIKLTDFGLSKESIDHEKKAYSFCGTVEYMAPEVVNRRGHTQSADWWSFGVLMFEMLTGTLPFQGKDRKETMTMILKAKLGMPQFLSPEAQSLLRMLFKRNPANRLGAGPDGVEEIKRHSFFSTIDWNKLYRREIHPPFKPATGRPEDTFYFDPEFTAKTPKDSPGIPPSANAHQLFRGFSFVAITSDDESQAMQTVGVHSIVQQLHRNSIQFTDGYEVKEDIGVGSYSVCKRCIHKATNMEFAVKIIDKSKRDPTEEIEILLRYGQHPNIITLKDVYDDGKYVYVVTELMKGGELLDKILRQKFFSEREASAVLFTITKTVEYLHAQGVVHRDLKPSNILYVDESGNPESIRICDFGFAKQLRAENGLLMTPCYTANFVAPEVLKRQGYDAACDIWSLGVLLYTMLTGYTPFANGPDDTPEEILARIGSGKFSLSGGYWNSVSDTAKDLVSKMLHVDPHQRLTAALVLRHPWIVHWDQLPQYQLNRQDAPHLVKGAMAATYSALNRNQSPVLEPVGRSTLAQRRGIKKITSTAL
Put plainly: RSK2 Omnia Assay for compound IC50 determination. It counts as biochemical. Conditions: ATP 15 μM, n=2, read-out: Mean RSK2 Biochem IC50. The procedure, abridged:
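Initial-rate slopes from continuous kinetic reads were fitted to a four-parameter equation for IC50 (n=2). Ki was then derived by Cheng-Prusoff assuming ATP-competitive inhibition. Reactions contained 15 μM ATP (Km 16.3 μM), 5 μM Omnia ST Peptide 6, and […] in 50 mM HEPES pH 7.5, 10 mM MgCl2, 1 mM DTT, 1% DMSO. Compounds spanned 11 threefold steps, […] final.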
Regarding `C[C@@H]1C(=O)N(c2cccc(C#N)c2)c2cnc(Nc3ccc4[nH]ncc4n3)nc2N1C1CCCCC1` [compound 167, 3-[(7R)-8-cyclohexyl-7-methyl-6-oxo-2-(1H-pyrazolo[4,3-b]pyridin-5-ylamino)-7,8-dihydropteridin-5(6H)-yl]benzonitrile], the half-maximal inhibitory concentration (IC50) was 100 to 1000 nM.

On to `C[C@@H]1C(=O)N(c2cccc(C#N)c2)c2cnc(Nc3ccc(O)cn3)nc2N1C1CCCCC1` [compound 168, 3-[(7R)-8-cyclohexyl-2-[(5-hydroxypyridin-2-yl)amino]-7-methyl-6-oxo-7,8-dihydropteridin-5(6H)-yl]benzonitrile], for which the IC50 lay in the range of 100 to 1000 nM.

With `C[C@@H]1C(=O)N(c2cccc(C#N)c2)c2cnc(Nc3cc(F)c4[nH]c(=O)oc4c3)nc2N1C1CCCCC1` [compound 169, 3-[(7R)-8-cyclohexyl-2-[(4-fluoro-2-oxo-2,3-dihydro-1,3-benzoxazol-6-yl)amino]-7-methyl-6-oxo-7,8-dihydropteridin-5(6H)-yl]benzonitrile], the IC50 was at most 100 nM. The same measure for `COc1ccc(N2C(=O)[C@@H](C)N(C3CCCCC3)c3nc(NCCc4cn[nH]c4)ncc32)cc1OC` [compound 170]: above 1000 nM.

Turning to `C[C@@H]1C(=O)N(c2cccc(C#N)c2)c2cnc(Nc3ccc(CO)cc3)nc2N1C1CCCCC1` [compound 171], the concentration for half-maximal inhibition (IC50) was at most 100 nM. The figure for `C[C@@H]1C(=O)N(c2cccc(C#N)c2)c2cnc(Nc3cnc4[nH]c(=O)oc4c3)nc2N1C1CCCCC1` [compound 172, 3-[(7R)-8-cyclohexyl-7-methyl-6-oxo-2-[(2-oxo-2,3-dihydro[1,3]oxazolo[4,5-b]pyridin-6-yl)amino]-7,8-dihydropteridin-5(6H)-yl]benzonitrile] is at most 100 nM; for `C[C@@H]1C(=O)N(c2ccc(N3CCN(C)CC3)c(C#N)c2)c2cnc(Nc3cc(F)c4[nH]ncc4c3)nc2N1C1CCCCC1` [compound 173, 5-[(7R)-8-cyclohexyl-2-[(7-fluoro-1H-indazol-5-yl)amino]-7-methyl-6-oxo-7,8-dihydropteridin-5(6H)-yl]-2-(4-methylpiperazin-1-yl)benzonitrile] it is at most 100 nM; for `C[C@@H]1C(=O)N(c2cccc(C#N)c2)c2cnc(Nc3ccc4c(c3)CS(=O)(=O)N4)nc2N1C1CCCCC1` [compound 174, 3-[(7R)-8-cyclohexyl-2-[(2,2-dioxido-1,3-dihydro-2,1-benzothiazol-5-yl)amino]-7-methyl-6-oxo-7,8-dihydropteridin-5(6H)-yl]benzonitrile] it is at most 100 nM.

Turning to `C[C@@H]1C(=O)N(c2ccn(C)c(=O)c2)c2cnc(Nc3cnc4[nH]ncc4c3)nc2N1C1CCCCC1` [compound 175, (7R)-8-cyclohexyl-7-methyl-5-(1-methyl-2-oxo-1,2-dihydropyridin-4-yl)-2-(1H-pyrazolo[3,4-b]pyridin-5-ylamino)-7,8-dihydropteridin-6(5H)-one], the 50% inhibitory concentration (IC50) was at most 100 nM. The figure for `C[C@@H]1C(=O)N(c2ccn(C)c(=O)c2)c2cnc(Nc3cc(F)c4[nH]ncc4c3)nc2N1C1CCCCC1` [compound 176, (7R)-8-cyclohexyl-2-[(7-fluoro-1H-indazol-5-yl)amino]-7-methyl-5-(1-methyl-2-oxo-1,2-dihydropyridin-4-yl)-7,8-dihydropteridin-6(5H)-one] is at most 100 nM. The same measure for `COC(=O)c1cc(N2C(=O)[C@@H](C)N(C3CCCCC3)c3nc(Nc4ccc5[nH]ncc5c4)ncc32)cs1` [compound 177, methyl 4-[(7R)-8-cyclohexyl-2-(1H-indazol-5-ylamino)-7-methyl-6-oxo-7,8-dihydropteridin-5(6H)-yl]thiophene-2-carboxylate]: at most 100 nM. The figure for `CC1C(=O)N(c2ccccc2)c2cnc(Nc3ccc4c(c3)CC(=O)N4)nc2N1c1ccccc1` (centres unmarked) [compound 179] is 100 to 1000 nM; for `C[C@@H]1C(=O)N(c2cccc(C#N)c2)c2cnc(Nc3cc(F)c4[nH]ncc4c3)nc2N1c1ccc(F)cc1` [compound 180] it is at most 100 nM. `COc1cccc(N2c3nc(Nc4cc(F)c5[nH]ncc5c4)ncc3N(c3cccc(C#N)c3)C(=O)[C@H]2C)c1` [compound 181, 3-[(7R)-2-[(7-fluoro-1H-indazol-5-yl)amino]-8-(3-methoxyphenyl)-7-methyl-6-oxo-7,8-dihydropteridin-5(6H)-yl]benzonitrile]: the IC50 is at most 100 nM. Regarding `COc1ccc(N2c3nc(Nc4cc(F)c5[nH]ncc5c4)ncc3N(c3cccc(C#N)c3)C(=O)[C@H]2C)cc1` [compound 182, 3-[(7R)-2-[(7-fluoro-1H-indazol-5-yl)amino]-8-(4-methoxyphenyl)-7-methyl-6-oxo-7,8-dihydropteridin-5(6H)-yl]benzonitrile], the IC50 was at most 100 nM.

For the molecule `C[C@@H]1C(=O)N(c2cccc(C#N)c2)c2cnc(Nc3cc(F)c4[nH]ncc4c3)nc2N1c1cccc(F)c1` [compound 183, 3-[(7R)-2-[(7-fluoro-1H-indazol-5-yl)amino]-8-(3-fluorophenyl)-7-methyl-6-oxo-7,8-dihydropteridin-5(6H)-yl]benzonitrile], the half-inhibitory concentration (IC50) is at most 100 nM. For the molecule `C[C@@H]1C(=O)N(c2cccc(C#N)c2)c2cnc(Nc3ccc4[nH]ncc4c3)nc2N1C1CCOCC1` [compound 184, 3-[(7R)-2-(1H-indazol-5-ylamino)-7-methyl-6-oxo-8-(tetrahydro-2H-pyran-4-yl)-7,8-dihydropteridin-5(6H)-yl]benzonitrile], the 50% inhibitory concentration (IC50) was at most 100 nM. Turning to `C[C@@H]1C(=O)N(c2cccc(C#N)c2)c2cnc(Nc3ccc4[nH]ncc4c3F)nc2N1C1CCOCC1` [compound 185, 3-[(7R)-2-[(4-fluoro-1H-indazol-5-yl)amino]-7-methyl-6-oxo-8-(tetrahydro-2H-pyran-4-yl)-7,8-dihydropteridin-5(6H)-yl]benzonitrile], the IC50 was at most 100 nM. The figure for `C[C@@H]1C(=O)N(c2cccc(C#N)c2)c2cnc(Nc3cc(F)c4[nH]ncc4c3)nc2N1C1CCOCC1` [compound 186, 3-[(7R)-2-[(7-fluoro-1H-indazol-5-yl)amino]-7-methyl-6-oxo-8-(tetrahydro-2H-pyran-4-yl)-7,8-dihydropteridin-5(6H)-yl]benzonitrile] is at most 100 nM. The figure for `COc1ccc(N2C(=O)[C@@H](C)N(C3CCOCC3)c3nc(Nc4ccc5[nH]nc(F)c5c4)ncc32)cc1OC` [compound 187, (7R)-5-(3,4-dimethoxyphenyl)-2-[(3-fluoro-1H-indazol-5-yl)amino]-7-methyl-8-(tetrahydro-2H-pyran-4-yl)-7,8-dihydropteridin-6(5H)-one] is at most 100 nM; for `COc1ccc(N2C(=O)[C@@H](C)N(C3CCOCC3)c3nc(Nc4cc(F)c5[nH]ncc5c4)ncc32)cc1OC` [compound 188, (7R)-5-(3,4-dimethoxyphenyl)-2-[(7-fluoro-1H-indazol-5-yl)amino]-7-methyl-8-(tetrahydro-2H-pyran-4-yl)-7,8-dihydropteridin-6(5H)-one] it is at most 100 nM. The same measure for `C[C@@H]1C(=O)N(c2cccc(F)c2)c2cnc(Nc3cc(F)c4[nH]ncc4c3)nc2N1C1CCOCC1` [compound 189, (7R)-2-[(7-fluoro-1H-indazol-5-yl)amino]-5-(3-fluorophenyl)-7-methyl-8-(tetrahydro-2H-pyran-4-yl)-7,8-dihydropteridin-6(5H)-one]: at most 100 nM; for `COc1ccc(N2C(=O)[C@@H](C)N(C3CCOCC3)c3nc(Nc4cc(F)c5[nH]ncc5c4)ncc32)cc1C#N` [compound 190, 5-[(7R)-2-[(7-fluoro-1H-indazol-5-yl)amino]-7-methyl-6-oxo-8-(tetrahydro-2H-pyran-4-yl)-7,8-dihydropteridin-5(6H)-yl]-2-methoxybenzonitrile]: at most 100 nM; for `C[C@@H]1C(=O)N(c2cccnc2)c2cnc(Nc3cc(F)c4[nH]ncc4c3)nc2N1C1CCOCC1` [compound 191, (7R)-2-[(7-fluoro-1H-indazol-5-yl)amino]-7-methyl-5-(pyridin-3-yl)-8-(tetrahydro-2H-pyran-4-yl)-7,8-dihydropteridin-6(5H)-one]: at most 100 nM. `COc1ccc(N2C(=O)[C@@H](C)N(C3CCOCC3)c3nc(Nc4cc(F)c5[nH]ncc5c4)ncc32)cn1` [compound 192, (7R)-2-[(7-fluoro-1H-indazol-5-yl)amino]-5-(6-methoxypyridin-3-yl)-7-methyl-8-(tetrahydro-2H-pyran-4-yl)-7,8-dihydropteridin-6(5H)-one]: the IC50 is at most 100 nM. The figure for `C[C@@H]1C(=O)N(c2ccc(N3CCN(C)CC3)nc2)c2cnc(Nc3cc(F)c4[nH]ncc4c3)nc2N1C1CCOCC1` [compound 193, (7R)-2-[(7-fluoro-1H-indazol-5-yl)amino]-7-methyl-5-[6-(4-methylpiperazin-1-yl)pyridin-3-yl]-8-(tetrahydro-2H-pyran-4-yl)-7,8-dihydropteridin-6(5H)-one] is at most 100 nM; for `C[C@@H]1C(=O)N(c2cccc(C#N)c2)c2cnc(Nc3cc(F)c(O)c(F)c3)nc2N1C1CCOCC1` [compound 194, 3-[(7R)-2-[(3,5-difluoro-4-hydroxyphenyl)amino]-7-methyl-6-oxo-8-(tetrahydro-2H-pyran-4-yl)-7,8-dihydropteridin-5(6H)-yl]benzonitrile] it is at most 100 nM; for `CCOc1ccc(N2C(=O)[C@@H](C)N(C3CCOCC3)c3nc(Nc4cc(F)c5[nH]ncc5c4)ncc32)cc1C#N` [compound 195, 2-Ethoxy-5-[(7R)-2-[(7-fluoro-1H-indazol-5-yl)amino]-7-methyl-6-oxo-8-(tetrahydro-2H-pyran-4-yl)-7,8-dihydropteridin-5(6H)-yl]benzonitrile] it is at most 100 nM. Turning to `CC(C)Oc1ccc(N2C(=O)[C@@H](C)N(C3CCOCC3)c3nc(Nc4cc(F)c5[nH]ncc5c4)ncc32)cc1C#N` [compound 196, 5-[(7R)-2-[(7-fluoro-1H-indazol-5-yl)amino]-7-methyl-6-oxo-8-(tetrahydro-2H-pyran-4-yl)-7,8-dihydropteridin-5(6H)-yl]-2-(propan-2-yloxy)benzonitrile], the half-maximal inhibitory concentration (IC50) was at most 100 nM.
